Experimental data from publication PMC6917776, “Discovery of a chemical probe for PRDM9” (Nature Communications, 2019).
“And” between values parts separate entries of the source, which are not always exact repeats. Identical values can stand only once.

Legend:
Muscarinic M2 = target: T1, Muscarinic M2 (Homo sapiens, UniProt P08172); test: GPCR functional activity, GloSensor assay (agonist and antagonist mode); type: cell-based; settings: for M2 Tango Agonist, raw signal / M2 Tango Antagonist, raw signal: replicates 1-4
T1 construct: NIMH Psychoactive Drug Screening Program, University of North Carolina at Chapel Hill
T1 sequence (P08172 1-466): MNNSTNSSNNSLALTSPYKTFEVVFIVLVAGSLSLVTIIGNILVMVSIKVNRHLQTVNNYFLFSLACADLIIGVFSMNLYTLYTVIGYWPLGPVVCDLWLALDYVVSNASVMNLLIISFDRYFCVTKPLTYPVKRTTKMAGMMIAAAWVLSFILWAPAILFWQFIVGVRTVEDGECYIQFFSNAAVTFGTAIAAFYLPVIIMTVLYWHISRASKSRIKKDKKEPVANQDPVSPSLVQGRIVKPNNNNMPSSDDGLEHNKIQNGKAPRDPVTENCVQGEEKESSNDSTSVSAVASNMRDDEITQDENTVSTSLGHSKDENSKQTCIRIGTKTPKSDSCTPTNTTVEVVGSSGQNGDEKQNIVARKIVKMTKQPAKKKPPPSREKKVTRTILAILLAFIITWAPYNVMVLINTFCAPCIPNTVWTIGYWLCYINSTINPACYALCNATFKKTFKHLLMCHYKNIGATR

[1] = target: T2, Biotinylated PRDM9 (amino acids 195–415) (Homo sapiens, UniProt Q9NQV7); test: Surface plasmon resonance (SPR) binding; design: key to SPR steady state response, raw data (Y): response units (RU); settings: for SPR steady state response, raw data (Y): 350 µM SAM, Exp1–4
T2 construct: Biotinylated PRDM9 (amino acids 195–415)
T2 sequence (Q9NQV7 195-415): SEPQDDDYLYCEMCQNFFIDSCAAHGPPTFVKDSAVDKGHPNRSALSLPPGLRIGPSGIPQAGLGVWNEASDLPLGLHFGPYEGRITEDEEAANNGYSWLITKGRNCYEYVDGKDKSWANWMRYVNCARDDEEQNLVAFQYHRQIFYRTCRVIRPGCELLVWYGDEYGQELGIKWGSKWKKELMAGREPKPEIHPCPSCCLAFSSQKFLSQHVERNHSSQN
Description: Biotinylated PRDM9 (amino acids 195–415) was immobilized on the flow cell of a SA sensor chip in 1x HBS-EP buffer, yielding 5700 RU. Using the buffer with 0.5% DMSO, 350 µM SAM and single cycle kinetic with 60 s contact time and a dissociation time of 120 s at a flow rate of 75 µL/min. […] Only binding to PRDM9 and PRDM7 with ∆Tm of higher than 2 °C was observed. […] All (c–e) experiments were performed in triplicate (n = 3) and data points are presented as average ± standard deviation. Source data are provided as a Source Data file.
Binding studies by SPR were performed using a Biacore T200 (GE Health Sciences Inc.) at 20 °C. Biotinylated PRDM9 was captured onto a flow cell of a streptavidin-conjugated SA chip at approximately 5000 response units (RU) according to manufacturer’s protocol while another flow cell was left empty for reference subtraction. […]
in the presence of SAM are the same as presented in figure 2 (a and b) within the main text. The experiments were performed in quadruplicate in the presence of 350 µM SAM (5x Km) or 750 µM SAH (5x IC50). Biotinylated PRDM9 (195-415aa) was immobilized on the flow cell of an SA sensor chip in 1x HBS-EP buffer, yielding 5700 RU. Using the buffer with 0.5% DMSO, 350 µM SAM or 750 µM SAH and single cycle kinetics with 60 s contact time and a dissociation time of 120 s at a flow rate of 75 µL/min. […]
and at 20 µM in the presence of SAH as the highest concentration. Dilution factor of 0.33 was used to yield 5 concentrations.

In the case of `COc1cc(OC)cc(-c2noc(N3CCN(C)C4(CCN(c5ccnc(C)c5)CC4)C3)n2)c1` [MRK-740], the “Functional activity (in words)” value (Muscarinic M2; agonist and antagonist mode) is reported as “no functional activity”, the “M2 Tango Agonist, raw signal” value (Muscarinic M2; log[MRK-740] -4.52) is reported as 1230.87 and 608.6 and 2018.05 and 925.229 and the “M2 Tango Antagonist, raw signal” value (Muscarinic M2; log[MRK-740] -4.52) is reported as 1892.98 and 2737.32 and 2580.15 and 2057.03. For the same compound, the “M2 Tango Agonist, raw signal” value (Muscarinic M2; log[MRK-740] -5) was 1170.4 and 556.928 and 885.65 and 2239.04, the “M2 Tango Antagonist, raw signal” value (Muscarinic M2; log[MRK-740] -5) was 2819.92 and 2620.3 and 3056.24 and 3398.11 and the “M2 Tango Agonist, raw signal” value (Muscarinic M2; log[MRK-740] -5.52) was 908.738 and 686.657 and 1321.02 and 1693.72. The “M2 Tango Antagonist, raw signal” value (Muscarinic M2; log[MRK-740] -5.52) was 11268.6 and 11778 and 17270.9 and 14621.3, the “M2 Tango Agonist, raw signal” value (Muscarinic M2; log[MRK-740] -6) was 612.997 and 2403.96 and 980.199 and 1368.29 and the “M2 Tango Antagonist, raw signal” value (Muscarinic M2; log[MRK-740] -6) was 16800.4 and 13053.9 and 12658.1 and 16097. The “M2 Tango Agonist, raw signal” value (Muscarinic M2; log[MRK-740] -6.52) was 1008.78 and 553.629 and 1327.61 and 250.195, the “M2 Tango Antagonist, raw signal” value (Muscarinic M2; log[MRK-740] -6.52) was 19522.3 and 17447.6 and 21435.3 and 11694.3 and the “M2 Tango Agonist, raw signal” value (Muscarinic M2; log[MRK-740] -7) was 841.674 and 505.256 and 883.451 and 1474.94. For the same compound, the “M2 Tango Antagonist, raw signal” value (Muscarinic M2; log[MRK-740] -7) was 19642.8 and 20162.6 and 13226 and 9835.52, the “M2 Tango Agonist, raw signal” value (Muscarinic M2; log[MRK-740] -7.52) was 1908.11 and 681.16 and 1388.08 and 3242.84 and the “M2 Tango Antagonist, raw signal” value (Muscarinic M2; log[MRK-740] -7.52) was 21785.3 and 16504.3 and 11050.6 and 14699.4. The “M2 Tango Agonist, raw signal” value (Muscarinic M2; log[MRK-740] -8) was 903.241 and 865.861 and 1293.53 and 833.978, the “M2 Tango Antagonist, raw signal” value (Muscarinic M2; log[MRK-740] -8) was 17075.8 and 13974.2 and 18134.9 and 13350 and the “M2 Tango Agonist, raw signal” value (Muscarinic M2; log[MRK-740] -8.52) was 3423.68 and 634.694 and 1797.23 and 346.523. For the same compound, the “M2 Tango Antagonist, raw signal” value (Muscarinic M2; log[MRK-740] -8.52) was 19019.9 and 15122.7 and 15169.2 and 14917.8, the “M2 Tango Agonist, raw signal” value (Muscarinic M2; log[MRK-740] -9) was 2386.23 and 137.073 and 3399.79 and 858.202 and the “M2 Tango Antagonist, raw signal” value (Muscarinic M2; log[MRK-740] -9) was 17183.9 and 21120.4 and 14888.7 and 14358.1. The “M2 Tango Agonist, raw signal” value (Muscarinic M2; log[MRK-740] -9.52) was 623.448 and 315.598 and 869.448 and 1092.96, the “M2 Tango Antagonist, raw signal” value (Muscarinic M2; log[MRK-740] -9.52) was 22350.3 and 15858.2 and 16819.1 and 15951.3 and the “M2 Tango Agonist, raw signal” value (Muscarinic M2; log[MRK-740] -10) was 2109.3 and 935.517 and 704.979 and 1937.8. The “M2 Tango Antagonist, raw signal” value (Muscarinic M2; log[MRK-740] -10) was 21021.6 and 16763.8 and 20216.2 and 13987.5, the “M2 Tango Agonist, raw signal” value (Muscarinic M2; log[MRK-740] -10.52) was 1187.14 and 1805.66 and 1171.68 and 1424.71 and the “M2 Tango Antagonist, raw signal” value (Muscarinic M2; log[MRK-740] -10.52) was 18293 and 14853.8 and 17839.5 and 22558.2. The “M2 Tango Agonist, raw signal” value (Muscarinic M2; log[MRK-740] -11) was 648.751 and 5178.11 and 914.431 and 991.746, the “M2 Tango Antagonist, raw signal” value (Muscarinic M2; log[MRK-740] -11) was 17836.6 and 15099.5 and 17153.4 and 15587.9 and the “M2 Tango Agonist, raw signal” value (Muscarinic M2; log[MRK-740] -11.52) was 2954.16 and 1388.16 and 1004.4 and 790.728. For the same compound, the “M2 Tango Antagonist, raw signal” value (Muscarinic M2; log[MRK-740] -11.52) was 13959.9 and 19316.4 and 14923.6 and 25119.7, the “M2 Tango Agonist, raw signal” value (Muscarinic M2; log[MRK-740] -12) was 606.579 and 917.242 and 726.065 and 3353.4 and the “M2 Tango Antagonist, raw signal” value (Muscarinic M2; log[MRK-740] -12) was 15989 and 24141.3 and 15762.3 and 20389.2. The “Binding to PRDM9 in the presence of SAH, compared with SAM (in words)” value ([1]; 750 µM SAH versus 350 µM SAM) was “dramatically weaker”, the “SPR steady state response, raw data (Y)” value ([1]; X = 1.11E-07 (concentration, unit not given)) was 22.0666 and 21.2987 and 20.382 and 19.6958 and the “SPR steady state response, raw data (Y)” value ([1]; X = 1.23E-08 (concentration, unit not given)) was 5.847 and 5.521 and 5.156 and 5.206. The “SPR steady state response, raw data (Y)” value ([1]; X = 3.70E-08 (concentration, unit not given)) was 12.6421 and 12.2536 and 11.7778 and 11.3155, the kon ([1]; in the presence of 350 µM SAM) was 1.2e+06 ± 1e+11 M⁻¹ s⁻¹ and the Kd ([1]; in the presence of 350 µM SAM, n = 4, read-out: Kd, SPR kinetic fit) was 87 ± 5 nM.
